The values that follow come from BindingDB's records for patent US11001595 (Duquesne University of The Holy Spirit, 2021).

This assay concerns the target T1, Dihydrofolate reductase (Pneumocystis jirovecii (strain RU7), UniProt A0A0W4ZHR8).
T1 sequence (A0A0W4ZHR8 whole entry): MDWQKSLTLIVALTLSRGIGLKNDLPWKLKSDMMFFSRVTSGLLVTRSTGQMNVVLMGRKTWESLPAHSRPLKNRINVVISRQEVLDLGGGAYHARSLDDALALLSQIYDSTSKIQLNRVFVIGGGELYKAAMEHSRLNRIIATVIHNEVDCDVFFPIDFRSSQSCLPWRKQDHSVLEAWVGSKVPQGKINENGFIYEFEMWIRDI
Kind of assay: Not found.
Description: Not found

For `COc1ccccc1Sc1sc2nc(N)nc(N)c2c1C` [US11001595, Compound 2], the IC50 (commonly the point on the concentration scale where inhibition reaches its midpoint) is 177 nM.
Then `COc1ccc(Sc2sc3nc(N)nc(N)c3c2C)cc1` [US11001595, Compound 4], with 252 nM.
